What was measured:
[1] = tested on: stress ulcer formation in rats; test: WIS: Restraint and Water Immersion Stress-Induced Ulcer Inhibition Test; format: in vivo, rat (male Crj:SD or Slc:SD); conditions: 100 mg/kg oral, 10 minutes before 7 h restraint and water immersion (21° C.)
Procedure, shortened: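 Overnight-fasted male SD rats (6–7 weeks, n=5–8) dosed orally at 100 mg/kg in 0.3% CMC-Na or 0.05% Tween 80; 10 min later restrained and immersed to xiphoid in 21° C water for 7 h. Ulcer index is summed glandular erosion length; inhibition % = (1 − UI sample/UI control).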

[2] = MTT: Cell Damaging and Protecting Effect Test; format: cell-based, rabbit (male Japanese White); conditions: rabbit, gastric corpus mucosa cells, final concentration 10^-4 M, smaller value is better, read-out: MTT: cell damaging rate
Procedure, shortened: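 Primary gastric corpus mucosal cells from male Japanese White rabbit, enzymatically dispersed and cultured 3 days to confluence. Compound at final 10^-4 M added with MTT for 4 h at 37 °C; formazan read at OD 570–630. Cell damaging rate (%) calculated against control absorbance.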

[3] = tested on: mice; design: species or system mouse (male Slc:ICR); conditions: mouse, in vivo
Protocol: AT: Single Dose Toxicity Pretest
Male Slc:ICR mice (5-week-old) were used. Each group has 3 to 5 mice and each mouse was fasted, but allowed free access to water, for 4 to 5 hours from 9 a.m. in the test day. Then, 2,000 mg/10 ml/kg of the sample compound dissolved or suspended in an aqueous solution of 0.5% sodium carboxymethyl cellulose was orally administered thereto. To a control, only the vehicle was administered. […] The body weight was measured before and after the fasting as well as at the same time everyday. The dead animals were immediately subjected to autopsy and their organs were observed by naked eyes. Also, the living animals were sacrificed with ether or carbon dioxide one week after the administration and then their organs were observed by naked eyes.
The toxicity at the single dose of 2,000 mg/kg of the sample compound was expressed as being classified into 5 levels.
5: mortality rate is 0%; no toxicity is found at all both in behavior and organs.
4: Mortality rate is 0%; while no toxicity is found in organs, slight toxicity is observed in behavior or body weight increase.
3: While there is a dead animal (though not all the animals are dead), no toxicity is found in organs.
2: Regardless of whether there is a dead animal or not, toxicity is found in organs.
1: All the animals are dead.

In the case of CC(C)=CCC/C(C)=C/COc1ccc(OC/C=C(\C)CCC=C(C)C)c(C(=O)NCCN(C(C)C)C(C)C)c1 [Example 17], the “WIS: ulcer formation inhibitory rate” value [1] is reported as 62%, the cytotoxicity at 4 h, 100 µM [2] is reported as 27% and the “AT: single dose toxicity level” value [3] is reported as 5.
For CCN(CC)CCNC(=O)c1cc(OC/C=C(\C)CCC=C(C)C)ccc1OC/C=C(\C)CCC=C(C)C [Example 16], the “WIS: ulcer formation inhibitory rate” value [1] was 82%, the cytotoxicity at 4 h, 100 µM [2] was 40% and the “AT: single dose toxicity level” value [3] was 5.
For CCN(CC)CCNC(=O)c1cc(OCC=C(C)C)cc(OCC=C(C)C)c1 [Example 14], the “WIS: ulcer formation inhibitory rate” value [1] was 86%, the cytotoxicity at 4 h, 100 µM [2] was 43% and the “AT: single dose toxicity level” value [3] was 5.
With CCN(CC)CCNC(=O)c1cc(OC)c(OC/C=C(\C)CCC=C(C)C)c(OC)c1 [Example 37] the “WIS: ulcer formation inhibitory rate” value [1] was 69%, the cytotoxicity at 4 h, 100 µM [2] was 39% and the “AT: single dose toxicity level” value [3] was 4.
With COc1cc(C(=O)NCCN(C)C)cc(OC/C=C(\C)CCC=C(C)C)c1OC [Example 42] the “WIS: ulcer formation inhibitory rate” value [1] was 81%, the cytotoxicity at 4 h, 100 µM [2] was 17% and the “AT: single dose toxicity level” value [3] was 3.
In the case of CCN(CC=C(C)C)c1ccc(C(=O)NCCN(C(C)C)C(C)C)cc1 [Example 28], the “WIS: ulcer formation inhibitory rate” value [1] is reported as 87% and the cytotoxicity at 4 h, 100 µM [2] is reported as 16%.
For CCN(CC)CCNC(=O)c1cc(OC)c(OC/C=C(/C)CCC=C(C)C)c(OC)c1 [Example 38], the “WIS: ulcer formation inhibitory rate” value [1] was 86%, the cytotoxicity at 4 h, 100 µM [2] was 30% and the “AT: single dose toxicity level” value [3] was 5.

Source: patent US6001880A, “Alkylenediamine derivative, anti-ulcer drug, and antibacterial drug” (Shiseido Co., Ltd., priority 1997, dated 1999)
